Results: US20250270198A1, “PYRIDONE COMPOUNDS AS TRPA1 INHIBITORS” (D. E. Shaw Research, LLC, priority 2022, published 2025)

Tests used:
[1] = molecular target: human TRPA1 channel (Homo sapiens (Human), UniProt O75762); experiment: TRPA1 inhibitor activity, automated patch clamp (SyncroPatch); assay type: cell-based; conditions: CHO cells inducibly expressing human TRPA1; currents elicited by carvacrol (300 μM), holding potential −60 mV; Table 5
Method: This assay was used to evaluate the disclosed compounds' inhibition activities against the human TRPA1 channel.
CHO cells inducibly expressing human TRPA1 were grown in DMEM containing 10% heat-inactivated FBS, 1 mM Sodium Pyruvate, 2 mM L-Glutamine, Zeocin (100 μg/ml) and Blasticidin (10 μg/ml). Expression was induced by addition of Doxycycline (1 μg/ml) 24 hours before experiments. Cells used for electrophysiology were plated in plastic culture flasks and grown at 37° C. in a 5% CO2-humidified tissue culture incubator per ChanPharm SOP. Stocks were maintained in cryogenic storage.
The cells were bathed in an extracellular solution containing 80 mM NaCl, 60 mM NMDG, 4 mM KCl, 2 mM CaCl2), 6 mM MgCl2, 5 mM Glucose. 10 mM HEPES, 3 mM HEDTA; pH adjusted to 7.4 with NaOH; 305-310 mOsm. All compounds were dissolved in DMSO at 30 mM. The internal solution contained 10 mM CsCl, 110 mM CsF, 10 mM NaCl, 10 mM EGTA, 10 mM HEPES, 4 mM MgATP, 0.25 mM NaGTP, 4 mM BAPTA; pH adjusted to 7.2 with CsOH; 285-290 mOsm. Compound stock solutions were freshly diluted with external solution to concentrations of 3 nM, 10 nM 30 nM, 100 nM, 300 nM, 1 μM, 3 μM, 10 μM, and 30 μM. The highest content of DMSO (0.1%) was present at 30 μM.
All experiments were performed at room temperature. Each cell acted as its own control. In preparation for a current recording session, intracellular solution (see above) was loaded into the intracellular compartments of the automated patch clamp platform SyncroPatch (Nanion) chip and the cell suspension was pipetted into the extracellular compartments. After establishment of a whole-cell configuration, membrane current recordings and compound application were enabled by means of the SyncroPatch. TRPA1 currents were elicited by application of carvacrol (300 μM) at a constant holding potential of −60 mV (see Table A below).
To determine IC50 values, AUC and peak values, obtained in the presence of a given compound concentration, were normalized to control values in absence of compound. Using DataControl384 (Nanion's proprietary software), IC50 values were derived by fitting the normalized data to the Hill equation.

[2] = molecular target: hERG channel (Homo sapiens (Human), UniProt Q12809); experiment: hERG activity, automated patch clamp (SyncroPatch); assay type: cell-based; conditions: CHO-K1 cells stably expressing hERG; tail current at −50 mV; compounds at 50 μM and 100 μM; Table 5
hERG channel, sequence (Q12809 whole entry): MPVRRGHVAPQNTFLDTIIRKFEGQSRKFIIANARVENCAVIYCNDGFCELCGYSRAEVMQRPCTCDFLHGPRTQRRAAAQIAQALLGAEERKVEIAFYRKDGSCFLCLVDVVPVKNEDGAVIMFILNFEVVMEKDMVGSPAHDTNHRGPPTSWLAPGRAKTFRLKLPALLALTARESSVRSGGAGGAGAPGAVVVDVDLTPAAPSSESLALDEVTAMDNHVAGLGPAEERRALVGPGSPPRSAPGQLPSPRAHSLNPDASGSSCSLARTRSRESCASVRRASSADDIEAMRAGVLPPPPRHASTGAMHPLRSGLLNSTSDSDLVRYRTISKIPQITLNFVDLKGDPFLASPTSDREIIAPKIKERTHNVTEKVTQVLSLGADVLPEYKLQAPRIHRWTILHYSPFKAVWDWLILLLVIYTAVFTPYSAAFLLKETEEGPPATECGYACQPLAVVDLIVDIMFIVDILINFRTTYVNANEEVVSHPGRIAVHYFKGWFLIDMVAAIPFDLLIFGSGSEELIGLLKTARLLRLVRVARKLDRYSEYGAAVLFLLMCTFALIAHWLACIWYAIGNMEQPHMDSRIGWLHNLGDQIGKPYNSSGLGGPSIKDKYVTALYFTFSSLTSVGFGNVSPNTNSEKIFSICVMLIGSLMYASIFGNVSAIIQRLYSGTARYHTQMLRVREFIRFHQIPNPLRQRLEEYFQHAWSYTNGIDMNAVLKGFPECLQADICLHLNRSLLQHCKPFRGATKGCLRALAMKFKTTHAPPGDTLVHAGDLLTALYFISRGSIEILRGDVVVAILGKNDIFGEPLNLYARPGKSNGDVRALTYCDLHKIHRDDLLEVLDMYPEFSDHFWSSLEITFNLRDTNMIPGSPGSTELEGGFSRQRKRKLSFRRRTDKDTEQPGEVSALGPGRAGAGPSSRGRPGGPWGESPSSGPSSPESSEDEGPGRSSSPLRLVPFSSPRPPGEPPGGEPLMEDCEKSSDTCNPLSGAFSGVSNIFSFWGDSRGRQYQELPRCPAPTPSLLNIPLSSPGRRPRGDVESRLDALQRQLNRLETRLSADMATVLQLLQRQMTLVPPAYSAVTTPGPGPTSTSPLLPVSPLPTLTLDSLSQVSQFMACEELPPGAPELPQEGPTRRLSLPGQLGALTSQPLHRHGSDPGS
Method: This assay was used to evaluate the disclosed compounds' inhibition activities against the hERG channel.
CHO-K1 cells stably expressing hERG were grown in Ham's F-12 Medium with Glutamine containing 10% heat-inactivated FBS, 1% Penicillin/Streptomycin, Hygromycin (100 μg/ml), and G418 (100 μg/ml). Cells used for electrophysiology were plated in plastic culture flasks and grown at 37° C. in a 5% CO2-humidified incubator per ChanPharm SOP. Stocks were maintained in cryogenic storage.
The cells were bathed in an extracellular solution containing 140 mM NaCl, 4 mM KCl, 2 mM CaCl2), 1 mM MgCl2, 5 mM Glucose, and 10 mM HEPES; pH adjusted to 7.4 with NaOH; 295-305 mOsm. The internal solution contained 10 mM KCl, 110 mM KF, 10 mM NaCl, 10 mM EGTA, 10 mM HEPES; pH adjusted to 7.2 with KOH; 280-285 mOsm. All compounds were dissolved in DMSO at 30 mM. Compound stock solutions were freshly diluted with external solution to concentrations of 50 μM and 100 μM. The highest content of DMSO […].
All experiments were performed at room temperature. Each cell acted as its own control. In preparation for a recording session, intracellular solution (see above) was loaded into the intracellular compartments of the automated patch clamp platform SyncroPatch (Nanion) chip and the cell suspension was pipetted into the extracellular compartments. After establishment of a whole-cell configuration, membrane current recordings, and compound application were enabled by means of the SyncroPatch. hERG currents were elicited by a voltage pulse pattern with fixed amplitudes (depolarization: +20 mV amplitude, 300 ms duration; repolarization: −50 mV, 300 ms duration) repeated at 3 s intervals from a holding potential of −80 mV.
Data acquisition and analysis were performed using DataControl384 (Nanion's proprietary software). To determine the (percentage) inhibition, the last single pulse in the pulse train (i.e., the repolarization step to −50 mV; tail current) at a given compound concentration was used. AUC and peak values, obtained in the presence of compound, were normalized to control values in the absence of compound.

human TRPA1 channel, sequence (O75762 whole entry): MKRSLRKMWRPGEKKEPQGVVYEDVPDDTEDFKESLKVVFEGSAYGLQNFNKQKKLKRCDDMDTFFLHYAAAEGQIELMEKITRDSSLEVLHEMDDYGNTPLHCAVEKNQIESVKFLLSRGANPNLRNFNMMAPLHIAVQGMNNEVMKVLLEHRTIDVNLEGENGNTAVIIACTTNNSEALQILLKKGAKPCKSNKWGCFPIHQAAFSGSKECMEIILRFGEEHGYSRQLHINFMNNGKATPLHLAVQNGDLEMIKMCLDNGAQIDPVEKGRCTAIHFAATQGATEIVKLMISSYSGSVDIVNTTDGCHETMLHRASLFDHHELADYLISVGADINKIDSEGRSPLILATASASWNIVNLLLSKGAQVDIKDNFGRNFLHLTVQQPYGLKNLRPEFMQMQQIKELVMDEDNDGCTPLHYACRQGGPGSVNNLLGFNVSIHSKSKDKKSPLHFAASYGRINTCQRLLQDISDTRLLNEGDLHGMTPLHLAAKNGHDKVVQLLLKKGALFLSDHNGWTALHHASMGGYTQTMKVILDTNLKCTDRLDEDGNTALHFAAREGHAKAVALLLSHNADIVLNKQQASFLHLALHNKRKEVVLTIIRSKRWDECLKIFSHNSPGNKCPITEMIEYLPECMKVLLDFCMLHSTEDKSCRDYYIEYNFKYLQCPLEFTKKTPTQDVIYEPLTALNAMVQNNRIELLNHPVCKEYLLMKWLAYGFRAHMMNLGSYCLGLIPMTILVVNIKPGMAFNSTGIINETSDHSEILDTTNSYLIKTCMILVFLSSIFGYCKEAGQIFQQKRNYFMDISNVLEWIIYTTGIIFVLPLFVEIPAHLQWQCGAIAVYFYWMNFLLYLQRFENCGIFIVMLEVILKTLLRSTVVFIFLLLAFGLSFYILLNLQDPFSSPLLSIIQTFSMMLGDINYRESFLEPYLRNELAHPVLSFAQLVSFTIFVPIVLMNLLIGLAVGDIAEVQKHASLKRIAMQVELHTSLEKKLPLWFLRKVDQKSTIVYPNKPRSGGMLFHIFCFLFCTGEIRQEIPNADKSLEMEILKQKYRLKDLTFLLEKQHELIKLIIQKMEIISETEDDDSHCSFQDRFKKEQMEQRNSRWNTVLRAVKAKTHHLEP

IC50 [1]: < 0.1 µM
Structure (SMILES): O=c1c(Cl)cnc(CO)n1Cc1nc(C[C@H](O)c2ccc(Cl)cc2)no1 [Compound 73, (S)-5-chloro-3-((3-(2-(4-chlorophenyl)-2-hydroxyethyl)-1,2,4-oxadiazol-5-yl)methyl)-2-(hydroxymethyl)pyrimidin-4(3H)-one]
IC50 [2]: > 50 µM
